Entries after “also recorded” stand apart in the source; their conditions may differ. Counter-ions that a name gives are not always drawn.

For one data set, the system named is human adipocytes. Briefly: Test of lipolytic capacity on human adipocytes (glycerol release). It is filed as cell-based. The following applies: for maximal lipolytic response elicited: glycerol released by human abdominal subcutaneous adipocytes, 90 min at 37° C., basal 0%, isoproterenol 100%. The text has this: The lipolytic capacity of the Synephrine Derivatives can be tested in human adipocytes. For the sake of convenience, for Examples 21 to 24, the known 2-isopropylamino-1-(4-hydroxyphenyl)-ethanol hydrochloride (Formula shown in Example 12, above, also known as isopropylnorsynephrine hydrochloride) is used here as a non-limiting example of a Synephrine Derivative.
In this example, the lipolytic property of isopropylnorsynephrine hydrochloride was compared to that of synephrine hydrochloride (Formula shown in Example 15). The index of lipolytic activity chosen was the glycerol released by freshly originated human adipocytes with reference to basal (0%, without any drug) and maximal (100%) responses to a standard lipolytic reference: isoproterenol.
Adipocytes were isolated from samples of subcutaneous abdominal adipose depot freshly obtained during abdominal lipectomy. The surgical interventions were conducted under general anaesthesia on ten healthy women undergoing abdominal plastic surgery. The human samples were transferred in less than 15 min to the laboratory for adipocyte preparation. The human abdominal subcutaneous adipocytes were obtained by collagenase digestion of the fresh samples of adipose tissue. The isolation, washing, handling and distribution of fat cells were carried out according to the technique described in Carpene, “Assays of Adrenergic Receptors: Including Lipolysis and Binding Measurements”, from Methods in Molecular Biology, supra. Briefly, extemporaneous dilutions of the tested drugs were added in 4 μl in plastic vials which received 400 μl of freshly prepared adipocyte suspension. The given concentrations were the final concentrations in which the cells were incubated for 90 min at 37° C. under gentle shaking. At the end of the experiment, the glycerol released by the cells was determined on an aliquot as described in Carpene, Id.
The mean lipid content in the incubation vials was 17.6±1.0 mg/400 μl, which corresponded to approximately 500,000 cells/vial.

For the next data set, the system named is adipose tissue. The following applies: Pilkington, Cernohorsky, Muhlbachova, Wenkeova et al.; cited from earlier work.
In another data set the target is T1, β3-adrenoceptors (Rattus norvegicus, UniProt P26255).
T1 construct: comparative studies in mammalian fat cells; host or cells: mammalian fat cells (adipocytes), endogenous receptor
The following applies: Carpene et al. 1999; cited from earlier work.

A further data set has as its system human fat cells. The following applies: Carpene et al.; cited from earlier work.
For the next data set, the system named is rat adipocyte. The following applies: Carpene et al.; cited from earlier work.
For data set [1] the following is noted: literature; cited from earlier work.
The subject of another data set is β-adrenergic. The following applies: literature; cited from earlier work.
The conditions of data set [2]: long use in China; Zhao et al. 1989; cited from earlier work.
Where [3] appears, read: ratio to synephrine hydrochloride.

T1 sequence (P26255 whole entry): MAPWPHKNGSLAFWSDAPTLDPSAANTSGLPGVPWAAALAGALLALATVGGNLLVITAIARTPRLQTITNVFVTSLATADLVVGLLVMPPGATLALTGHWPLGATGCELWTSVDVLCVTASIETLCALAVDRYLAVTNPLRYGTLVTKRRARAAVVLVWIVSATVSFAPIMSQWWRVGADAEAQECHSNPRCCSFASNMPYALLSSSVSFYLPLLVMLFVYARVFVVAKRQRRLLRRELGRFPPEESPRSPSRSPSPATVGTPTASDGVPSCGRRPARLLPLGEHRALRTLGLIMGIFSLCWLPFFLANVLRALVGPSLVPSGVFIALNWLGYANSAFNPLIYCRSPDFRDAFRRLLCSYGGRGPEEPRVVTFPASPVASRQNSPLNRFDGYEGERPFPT

`CC(C)NCC(O)c1ccc(O)cc1` (stereo not drawn) [isopropylnorsynephrine hydrochloride, 2-Isopropylamino-1-(4-hydroxyphenyl)-ethanol hydrochloride]: the “lipolytic effect at low concentration versus synephrine hydrochloride” value in the data set on human adipocytes (1μg/mL versus synephrine hydrochloride at 100 μg/mL) is on record as “still far greater than that of synephrine hydrochloride”. Moreover, in the data set with human adipocytes (FIG. 1), the “maximal lipolytic response elicited” value is recorded as ~60%. For the same compound, in the data set on human adipocytes (human adipocytes, FIG. 1, hydrochloride), the “lipolytic property on human fat cells (in words)” value is given as “strong lipolytic property; also recorded: superior than synephrine hydrochloride”. For the same compound, in the data set with human adipocytes (setting [3]), the “capacity to stimulate human adipocytes lipolysis compared to synephrine hydrochloride” value stood at 2 times and the “lipolytic potency relative to synephrine hydrochloride” value was ~100 times.
Take `CCNCC(O)c1ccc(O)cc1` (stereo not drawn) [ethylnorsynephrine, 2-ethylamino-1-(4-hydroxyphenyl)-ethanol]: the “lipid mobilization properties in vitro” value with adipose tissue is “have lipid mobilization properties in vitro”.
For the compound `CNCC(O)c1ccc(O)cc1` (stereo not drawn) [synephrine hydrochloride, 2-Methylamino-1-(4-hydroxyphenyl)-ethanol hydrochloride, reference compound], the “maximal lipolytic response elicited” value in the data set with human adipocytes (FIG. 1) is listed as ~30%.
Consider `CC(C)(Cc1ccccc1)NCC(O)c1ccc(O)cc1` (stereo not drawn) [phenyl-t-butylnorsynephrine, 2-(phenyl-t-butylamino)-1-(4-hydroxyphenyl)-ethanol], for which, in the data set with adipose tissue, the “lipid mobilization properties in vitro” value is listed as “have lipid mobilization properties in vitro”.
Regarding `NCC(O)c1ccc(O)cc1` (stereo not drawn) [octopamine, 2-amino-1-(4-hydroxyphenyl)-ethanol], the “selective action on β3-adrenoceptors” value on β3-adrenoceptors is “can selectively act on β3-adrenoceptors; also recorded: selective activation of β3-adrenoceptor”. The “effect on human fat cells (lipolysis)” value in the data set on human fat cells is “ineffective”. The rat adipocyte lipolysis result in the data set on rat adipocyte is listed as “effective”.
Turning to `CCCNCC(O)c1ccc(O)cc1` (stereo not drawn) [propylnorsynephrine, 2-propylamino-1-(4-hydroxyphenyl)-ethanol], the “lipid mobilization properties in vitro” value with adipose tissue was “have lipid mobilization properties in vitro”.
As for `CCCCNCC(O)c1ccc(O)cc1` (stereo not drawn) [Bamethan, 2-butylamino-1-(4-hydroxyphenyl)-ethanol], in the data set on adipose tissue, the “lipid mobilization properties in vitro” value is “have lipid mobilization properties in vitro”.
As to `CNCC(O)c1ccc(O)cc1` (stereo not drawn) [synephrine, 2-methylamino-1-(4-hydroxyphenyl)-ethanol], the “plasma free fatty acid level in vivo” value in data set [1] is “can increase plasma free fatty acid level in vivo”. Moreover, the “adrenergic activity (in words)” value in the data set on β-adrenergic is “both α- and β-adrenergic activity”. Besides, the “lipid mobilization properties in vitro” value with adipose tissue is “have lipid mobilization properties in vitro”. The “effect on blood pressure” value in data set [2] is reported as “increase blood pressure”.
On to `CC(C)NCC(O)c1ccc(O)cc1` (stereo not drawn) [isopropylnorsynephrine, 2-isopropylamino-1-(4-hydroxyphenyl)-ethanol], for which the “plasma free fatty acid level in vivo” value in data set [1] is “can increase plasma free fatty acid level in vivo”. Besides, in the data set with β-adrenergic, the “adrenergic activity (in words)” value is recorded as “pure β-adrenergic activity”. In addition, the “lipid mobilization properties in vitro” value with adipose tissue was “have lipid mobilization properties in vitro”.
`CC(C)(C)NCC(O)c1ccc(O)cc1` (stereo not drawn) [tert-butylnorsynephrine, 2-tert-butylamino-1-(4-hydroxyphenyl)-ethanol]: the “lipid mobilization properties in vitro” value with adipose tissue is “have lipid mobilization properties in vitro”.
